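The compound was tested at five concentrations on cells cultured in 96-well plates, with a 48-hour exposure period. Here, GI50 denotes the concentration required for 50% inhibition of growth.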 The source made the active and inactive calls. No stated cut-off is given here; in the data, active = GI50 up to about 1.1 µM and inactive = higher.
What was measured:
Test in all cases: NCI tumour cell line growth inhibition, 48 h
K562 = test system: K562
SF-268 = test system: SF-268
UACC-257 = test system: UACC-257
NCI-H460 = test system: NCI-H460
NCI-H522 = test system: NCI-H522
HOP-18 = test system: HOP-18
M19-MEL = test system: M19-MEL
NCI-H226 = test system: NCI-H226
MOLT-4 = test system: MOLT-4
DMS-273 = test system: DMS-273
CAKI-1 = test system: CAKI-1
786-0 = test system: 786-0
A549 = test system: A549
HCT-15 = test system: HCT-15
IGROV-1 = test system: IGROV-1
RPMI-8226 = test system: RPMI-8226
SW-620 = test system: SW-620
NCI-H23 = test system: NCI-H23
LOX IMVI = test system: LOX IMVI
HCC 2998 = test system: HCC 2998
UO-31 = test system: UO-31
TK-10 = test system: TK-10
SK-OV-3 = test system: SK-OV-3
KM-20L2 = test system: KM-20L2
COLO 205 = test system: COLO 205
ACHN = test system: ACHN
OVCAR-4 = test system: OVCAR-4
SR = test system: SR
XF498 = test system: XF498
HCT-116 = test system: HCT-116
RXF 393 = test system: RXF 393
HOP-92 = test system: HOP-92
SNB-19 = test system: SNB-19
HOP-62 = test system: HOP-62
SK-MEL-5 = test system: SK-MEL-5
SNB-78 = test system: SNB-78
OVCAR-8 = test system: OVCAR-8
OVCAR-3 = test system: OVCAR-3
U-251 = test system: U-251
OVCAR-5 = test system: OVCAR-5
SK-MEL-2 = test system: SK-MEL-2
M14 = test system: M14
LXFL 529 = test system: LXFL 529
HT-29 = test system: HT-29
KM12 = test system: KM12
SF-295 = test system: SF-295
HL-60 = test system: HL-60
SK-MEL-28 = test system: SK-MEL-28
EKVX = test system: EKVX
SNB-75 = test system: SNB-75
UACC-62 = test system: UACC-62
CCRF-CEM = test system: CCRF-CEM
SF-539 = test system: SF-539
SN12C = test system: SN12C
DMS-114 = test system: DMS-114
Malme-3M = test system: Malme-3M
A498 = test system: A498
DLD-1 = test system: DLD-1

SMILES: CC(=O)OC12C(C)=C(C)C(=O)N1c1ccccc1N2C(C)=O (stereo unspecified)
- GI50 (K562): > 100 µM (inactive)
- GI50 (SF-268): > 100 µM (inactive)
- GI50 (UACC-257): > 100 µM (inactive)
- GI50 (NCI-H460): > 100 µM (inactive)
- GI50 (NCI-H522): > 100 µM (inactive)
- GI50 (HOP-18): > 100 µM (inactive)
- GI50 (M19-MEL): > 100 µM (inactive)
- GI50 (NCI-H226): > 100 µM (inactive)
- GI50 (MOLT-4): > 100 µM (inactive)
- GI50 (DMS-273): > 100 µM (inactive)
- GI50 (CAKI-1): > 100 µM (inactive)
- GI50 (786-0): > 100 µM (inactive)
- GI50 (A549): > 100 µM (inactive)
- GI50 (HCT-15): > 100 µM
- GI50 (IGROV-1): > 100 µM (inactive)
- GI50 (RPMI-8226): > 100 µM (inactive)
- GI50 (SW-620): > 100 µM (inactive)
- GI50 (NCI-H23): > 100 µM (inactive)
- GI50 (LOX IMVI): > 100 µM (inactive)
- GI50 (HCC 2998): > 100 µM (inactive)
- GI50 (UO-31): > 100 µM (inactive)
- GI50 (TK-10): > 100 µM (inactive)
- GI50 (SK-OV-3): > 100 µM (inactive)
- GI50 (KM-20L2): > 100 µM (inactive)
- GI50 (COLO 205): > 100 µM (inactive)
- GI50 (ACHN): > 100 µM (inactive)
- GI50 (OVCAR-4): > 100 µM (inactive)
- GI50 (SR): > 100 µM (inactive)
- GI50 (XF498): > 100 µM (inactive)
- GI50 (HCT-116): > 100 µM (inactive)
- GI50 (RXF 393): > 100 µM (inactive)
- GI50 (HOP-92): > 100 µM (inactive)
- GI50 (SNB-19): > 100 µM (inactive)
- GI50 (HOP-62): > 100 µM (inactive)
- GI50 (SK-MEL-5): > 100 µM (inactive)
- GI50 (SNB-78): > 100 µM (inactive)
- GI50 (OVCAR-8): > 100 µM (inactive)
- GI50 (OVCAR-3): > 100 µM (inactive)
- GI50 (U-251): > 100 µM (inactive)
- GI50 (OVCAR-5): > 100 µM (inactive)
- GI50 (SK-MEL-2): > 100 µM (inactive)
- GI50 (M14): > 100 µM (inactive)
- GI50 (LXFL 529): > 100 µM (inactive)
- GI50 (HT-29): > 100 µM (inactive)
- GI50 (KM12): > 100 µM (inactive)
- GI50 (SF-295): > 100 µM (inactive)
- GI50 (HL-60): > 100 µM (inactive)
- GI50 (SK-MEL-28): 33.4 µM (inactive)
- GI50 (EKVX): > 100 µM (inactive)
- GI50 (SNB-75): > 100 µM (inactive)
- GI50 (UACC-62): > 100 µM (inactive)
- GI50 (CCRF-CEM): > 100 µM (inactive)

SMILES: NC(=O)c1c([N+](=O)[O-])cc(C(F)(F)F)cc1[N+](=O)[O-]
- GI50 (K562): 86.1 µM (inactive)
- GI50 (SF-268): > 100 µM (inactive)
- GI50 (SF-539): 45.7 µM (inactive)
- GI50 (UACC-257): 27 µM (inactive)
- GI50 (NCI-H460): 47.4 µM (inactive)
- GI50 (NCI-H522): 21.5 µM (inactive)
- GI50 (HOP-18): > 100 µM (inactive)
- GI50 (NCI-H226): > 100 µM (inactive)
- GI50 (MOLT-4): > 100 µM (inactive)
- GI50 (DMS-273): 35.1 µM (inactive)
- GI50 (CAKI-1): > 100 µM (inactive)
- GI50 (786-0): > 100 µM (inactive)
- GI50 (SN12C): 52.4 µM (inactive)
- GI50 (DMS-114): 26.9 µM (inactive)
- GI50 (Malme-3M): 24.4 µM (inactive)
- GI50 (A498): > 100 µM (inactive)
- GI50 (A549): 99.5 µM (inactive)
- GI50 (IGROV-1): > 100 µM (inactive)
- GI50 (RPMI-8226): > 100 µM (inactive)
- GI50 (SW-620): 44.5 µM (inactive)
- GI50 (NCI-H23): 29.8 µM (inactive)
- GI50 (LOX IMVI): 51.2 µM (inactive)
- GI50 (HCC 2998): 38.4 µM (inactive)
- GI50 (UO-31): > 100 µM (inactive)
- GI50 (TK-10): > 100 µM (inactive)
- GI50 (SK-OV-3): > 100 µM (inactive)
- GI50 (KM-20L2): 33.3 µM (inactive)
- GI50 (COLO 205): 26.1 µM (inactive)
- GI50 (ACHN): > 100 µM (inactive)
- GI50 (OVCAR-4): 68.2 µM (inactive)
- GI50 (SR): > 100 µM (inactive)
- GI50 (XF498): > 100 µM (inactive)
- GI50 (HCT-116): 39 µM (inactive)
- GI50 (RXF 393): > 100 µM (inactive)
- GI50 (HOP-92): > 100 µM (inactive)
- GI50 (SNB-19): > 100 µM (inactive)
- GI50 (HOP-62): > 100 µM (inactive)
- GI50 (SK-MEL-5): 50 µM (inactive)
- GI50 (SNB-78): > 100 µM (inactive)
- GI50 (OVCAR-8): > 100 µM (inactive)
- GI50 (OVCAR-3): 24.9 µM (inactive)
- GI50 (U-251): > 100 µM (inactive)
- GI50 (OVCAR-5): > 100 µM (inactive)
- GI50 (M14): 76.6 µM (inactive)
- GI50 (LXFL 529): > 100 µM (inactive)
- GI50 (HT-29): 41.7 µM (inactive)
- GI50 (KM12): 44 µM (inactive)
- GI50 (SF-295): > 100 µM (inactive)
- GI50 (HL-60): 18 µM (inactive)
- GI50 (SK-MEL-28): > 100 µM (inactive)
- GI50 (EKVX): > 100 µM (inactive)
- GI50 (SNB-75): > 100 µM (inactive)
- GI50 (UACC-62): 35.1 µM (inactive)
- GI50 (DLD-1): > 100 µM (inactive)

Source: ChEMBL document CHEMBL1201862, “PubChem BioAssay data set” (2004)
